Test [1] has as its system vaginal trichomonad infection. Particulars: murine model of vaginal trichomonad infection; ref Natto et al., 2021; cited from earlier work.
The test system of another test is P1 transporter. The settings on record: thymidine uptake by P1 transporter; ref De Koning and Jarvis, 1999; cited from earlier work.
The target in the next test is TvagENT3 (Trichomonas vaginalis, UniProt A2E5Q3). Kind of test: [3H]-cytidine uptake by T. brucei TbAT1-KO cells expressing TvagENT3.
Test [2] deals with T. vaginalis nucleoside transporters, Thymidine (LA). In words: Low affinity thymidine transport. The format is cell-based, Trichomonas vaginalis. Particulars: for EC50: 2-site equation, Fig. 3E.
Test [3] has as its system low affinity pyrimidine nucleobase transporter of T. vaginalis. Kind of test: [3H]-uracil transport in T. vaginalis trophozoites. The format is cell-based, Trichomonas vaginalis.
The test system of test [4] is T. vaginalis nucleoside transporters, Thymidine (HA). Kind of test: Higher affinity [3H]-thymidine transport. It is filed as cell-based, Trichomonas vaginalis.
In test [5] the test system is T. vaginalis nucleoside transporters, Adenosine (LA). In words: Low affinity adenosine transport. The format is cell-based, Trichomonas vaginalis. Particulars: for Ki: read-out: Ki,app, average and SEM.
For test [6], the target named is T. vaginalis nucleoside transporters, Guanosine (HA). In words: [3H]-guanosine transport in T. vaginalis trophozoites. It is filed as cell-based, Trichomonas vaginalis. The settings on record: read-out: Ki,app; inhibition of [3H]-guanosine transport; monophasic sigmoid curve; average and SEM.
The target in test [7] is T. vaginalis nucleoside transporters, Adenosine (HA). Kind of test: High affinity [3H]-adenosine transport in T. vaginalis trophozoites. The settings on record: read-out: Ki,app; inhibition of […] [3H]-adenosine transport, 30 s; monophasic; average and SEM. It is filed as cell-based, Trichomonas vaginalis.
For a further test, the system named is uracil transporter. It is filed as cell-based, Trypanosoma brucei. Particulars: 0.25 µM [3H]-uridine, control (empty vector) cells, 250 µM uracil.
The mark [8] stands for this setting: Lineweaver-Burk double reciprocal plot, single experiment, Fig. 3F.
[9] abbreviates: saturation curve, single experiment, Fig. 3E inset.
Where [10] appears, read: single experiment, Fig. 3C inset.
Where [11] appears, read: inhibition of 20 µM [3H]-adenosine transport.
Setting [12] is: single experiment, Fig. 5D inset.

SMILES strings stand for the structures. “And” between values parts separate entries of the source, which are not always exact repeats. Equal entries are not always repeated. Where two headings read alike, the source gives them in different places.

As to `Nc1ncnc2c1c(-c1ccc(Cl)cc1)cn2[C@@H]1O[C@H](CO)[C@@H](O)[C@H]1O` [7-(4-Cl-phenyl),7-deazaadenosine], in test [1], the efficacy result is “efficacious”.
By Hill slope is commonly meant the slope factor of the fitted curve. A word on the inhibition: it is the change of the read-out against control, counted positive when it falls. As a reminder, the EC50 is the concentration that produces a half-maximal response. As a reminder, the Km is the substrate concentration at which the rate is half of its maximum. As for `Cc1cn([C@H]2C[C@H](O)[C@@H](CO)O2)c(=O)[nH]c1=O` [thymidine], the affinity with P1 transporter is on record as 44 µM. Also, the Hill slope at TvagENT3 is reported as −1.17 ± 0.15; at TvagENT3 (single experiment, Fig. 10D-F) it was −1.1. The Ki on TvagENT3 came to 286 ± 12 µM; in [5] (setting [11]), 557 ± 135 µM; in test [6], 206 ± 62 µM; in test [7], 274 ± 45 µM. Besides, the inhibition at 400 µM on TvagENT3 (read-out: inhibition of cytidine uptake) is 62.6%. Also, the rate of uptake is listed as 0.139 ± 0.008 pmol(10^7 cells)^−1s^−1 in test [2] (1 µM [3H]-thymidine) and 0.0045 ± 0.0012 pmol(10^7 cells)^−1s^−1 in test [4] (0.125 µM [3H]-thymidine, average of 4 experiments over 60 s). In [2] (1 µM [3H]-thymidine + 1 mM thymidine), the “rate of uptake in the presence of unlabelled permeant” value is 0.013 ± 0.0018 pmol(10^7 cells)^−1s^−1. Also, the inhibition of uptake in test [2] (1 µM [3H]-thymidine by 1 mM unlabelled thymidine) is 90.6%; in [4] (0.125 µM [3H]-thymidine by 1 mM unlabelled thymidine), 75%. The “Vmax, low affinity component” value in test [2] (setting [8]) was 12.0 pmol(10^7 cells)^−1s^−1. Moreover, the Vmax in test [2] (Thymidine (LA), average and SEM) is on record as 9.4 ± 2.5 pmol(10^7 cells)^−1s^−1; in test [2] (setting [9]), 12.9 pmol(10^7 cells)^−1s^−1; in test [4] (Thymidine (HA), average and SEM) it was 0.69 ± 0.37 pmol(10^7 cells)^−1s^−1; in test [4] (Thymidine (HA), average and SEM, listed as Thymidine), 6.7 ± 1.8 pmol(10^7 cells)^−1s^−1; in [4] (setting [10]), 0.245 pmol(10^7 cells)^−1s^−1. The concentration giving a half-maximal response (EC50) was 10.7 µM in test [2] (read-out: EC50, higher affinity component, 1 µM [3H]-thymidine, single experiment); 529 µM in test [2] (read-out: EC50, lower affinity component, 1 µM [3H]-thymidine, single experiment); 11.7 µM in [4] (inhibition of 0.125 µM [3H]-thymidine uptake, single experiment, Fig. 3C/D); 817 µM in test [5] (inhibition of 20 µM [3H]-adenosine transport, single experiment, Fig. 4). Also, the Km stood at 340 µM in [2] (read-out: Km, low affinity component, Lineweaver-Burk double reciprocal plot, single experiment, Fig. 3F); 470 ± 104 µM in test [2] (read-out: Km,app, Thymidine (LA), 1 µM [3H]-thymidine, average and SEM); 394 µM in test [2] (setting [9]); 23.6 µM in test [4] (read-out: Km, higher affinity component, Lineweaver-Burk double reciprocal plot, single experiment, Fig. 3F); 13.2 ± 0.8 µM in [4] (read-out: Km,app, Thymidine (HA), 125 nM [3H]-thymidine, average and SEM); 15.1 µM in test [4] (setting [10]). For the same compound, in test [3] (uridine, thymidine up to 10 mM, adenosine, inosine up to 1 mM), the “inhibition of uracil transport” value is “unable to inhibit”. Moreover, the “Vmax, higher affinity component” value in test [4] (setting [8]) is listed as 2.2 pmol(10^7 cells)^−1s^−1.
As for `O=c1cc[nH]c(=O)[nH]1` [uracil], the “reduction of background uridine uptake” value in the test on uracil transporter was ~ 85% and 84.7%. Further, the rate of uptake in test [3] (0.5 µM [3H]-uracil) is 0.0056 ± 0.0003 pmol(10^7 cells)^−1s^−1. In addition, in [3] (0.5 µM [3H]-uracil + 1 mM unlabelled uracil), the “rate of uptake in the presence of unlabelled permeant” value is listed as 0.0011 ± 0.0002 pmol(10^7 cells)^−1s^−1. In test [3] (0.5 µM [3H]-uracil over 20 s, single experiment, Fig. 5D), this compound returned an EC50 of 247 µM. Also, the Vmax was 1.58 ± 0.08 pmol(10^7 cells)^−1s^−1 in [3] (0.5 µM [3H]-uracil, 20 s, average) and 1.43 pmol(10^7 cells)^−1s^−1 in test [3] (setting [12]). Besides, the Michaelis constant (Km) in test [3] (read-out: Km,app, 0.5 µM [3H]-uracil, 20 s, average) amounted to 257 ± 58 µM; in test [3] (setting [12]), 298 µM. The inhibition of transport is listed as at most 50% in [4] (125 nM [3H]-thymidine, nucleobase at 1 mM) and at most 50% in [5] (20 µM [3H]-adenosine, highest tested concentration: guanosine 250 µM, adenine 1 mM, hypoxanthine 1 mM, uracil 10 mM). Moreover, the Ki in test [5] (setting [11]) is over 10000 µM.

The values above are taken from PMC8688338 (Molecular microbiology, 2021).
